PMC12767106, “In Situ Assembly of Transformable Monopeptide on Activated Neutrophils Attenuates NETs‐Induced Hepatocellular Carcinoma Metastasis by Disrupting NE Nuclear Translocation” (Advanced Science, 2025)

What was measured:
[1] = system: mice bearing Hepa1-6/luc tumors; experiment: Biodistribution by in vivo and ex vivo fluorescence imaging; parameters: species or system mouse
Experimental: To further evaluate the tumor tissue accumulation of FTP‐NPs in vivo, we conducted in vivo biodistribution studies using a murine model. For biodistribution studies, mice bearing Hepa1‐6/luc tumors were treated by NFTP‐NPs and FTP‐NPs via tail vein injection and monitored over time using an In‐Vivo system (IVIS, Figure 4a). After 12, 24, 48, and 168 h, tumors and major organs were collected for ex vivo fluorescence imaging (Figure S16a, Supporting Information). The fluorescence signal of the FTP‐NPs group was still detectable in tumor tissues after more than 3 days and lasted up to 7 days. In situ receptor‐mediated transformation of FTP‐NPs to NE‐fibril clusters in the tumor microenvironment may be responsible for the prolonged preservation of the fluorescence signal in FTP‐NPs‐treated mice, even after 7 days. […] The fluorescence signal of tumor tissue in the FTP‐NPs group at 48 h was 7.1‐fold higher than that in the NFTP‐NPs group (Figure S16b, Supporting Information).
(§1) Submitted to Advanced Science
Figure S16. Time-dependent ex vivo fluorescence (FL) images (a) and quantitative analysis (b) of tumor tissues and major organs (heart (H), liver (Li), spleen (Sp), lung (Lu), kidney (K), intestine(I), muscle (M), skin (Sk), and brain (B)) collected at 12, 24, 48, and 168 h post-injection of NFTP-NPs and FTP-NPs.
Figure S17. Gating strategy for T cell analysis. The tumor-bearing mice from each group were euthanized on day 20 post-treatment. Fifty thousand events were collected for each sample in the study. CD45+ cell counts determined the total T cell number, and CD8+ T cells were then gated within CD3+ T lymphocytes.
Figure S18. Corresponding flow cytometric quantification of CD8+T cells (CD45+CD3+CD8+, n = 3). Data are presented as mean ± s.d., n = 3 independent experiments. Statistical significance was calculated by one-way […]

[2] = system: Hepa1-6/luc liver and lung metastasis; experiment: Liver and lung metastasis model; type: in vivo, mouse; conditions: Hepa1-6/luc cells via spleen or tail vein, 300 µM in 200 µL i.v. every two days, 16 days, n = 5
From the text: as §1
effector T cells (CD45+CD3+CD8+)/(CD45+CD3+CD4+), tumor cells were stained with anti-CD45-FITC
(Biolegend), anti-CD3ε-PerCP-Cy5.5 (Biolegend), anti-CD4-APC (Biolegend), and anti-CD8a-PE (Biolegend)
antibodies according to the standard protocol. For evaluation of NK cells (CD45+CD3-NK1.1+), tumor cells
were stained with anti-CD45-FITC (Biolegend), anti-CD3-PE (Biolegend) and anti-CD49b-APC (Biolegend)
antibodies and examined using flow cytometry. For MDSCs (CD45+CD11b+Gr-1+) analysis, tumor cells were
stained with anti-CD45-FITC, anti-CD11b-BrilliantViolet-510 (Biolegend), anti -F4/80-PE (Biolegend), and
anti-Gr-1-APC (Biolegend) antibodies for flow cytometry examination (BD FACS Canto SORP, USA). The
software FlowJo V10.6.2 was used for data analysis. To further explore the immunomodulatory effects of FTP-
NPs. Tumor tissues were harvested for immune profiling. Plasma cytokine levels, including IL-6, IL-10, and
TNF-α, were measured using commercially available ELISA kits to assess the immune activation induced by
Experimental liver and lung metastasis model
Six-week-old male C57BL/6J mice (20–25 g) were used to establish liver and lung metastasis models. Hepa1-
6/luc cells (1 × 10^6 cells) were injected into the spleen or tail vein of the mice to induce liver or lung
metastasis, respectively. For the liver metastasis model, Hepa1-6/luc cells were injected into the spleen, allowing
tumor cells to circulate and establish metastases in the liver. For the lung metastasis model, Hepa1-6/luc cells
were injected via the tail vein, leading to the formation of metastases in the lungs. Following cell implantation, […]
euthanized, and metastases were assessed macroscopically. […]
injecting D-Luciferin (150 mg/kg) intraperitoneally, and tumor burden was quantified using the IVIS Spectrum […]
conducted, and metastatic lesions were assessed under an inverted microscope (Axiovert 200, Zeiss, Germany). […]
300 μM per injection) for mice. […] (b) Fluorescence quantized chart […]
experiments. Statistical significance was calculated by one-way ANOVA, *p < 0.050.(c, d) Photographs of lung […]

[3] = Nanoparticle size stability by DLS; type: physicochemical; conditions: room temperature, 20 µM, up to 168 h, method and Figure S3 legend name H2O and medium, repeated thrice
activated neutrophils = experiment: Retention on neutrophil membrane, flow cytometry of PpIX; type: cell-based, mouse; conditions: 50 µM, NPs washed off after 4 h, fresh medium for another 8 h
[4] = tail vein injection, IVIS imaging

Row | Substance | fluorescence signal of tumor tissue relative to NFTP-NPs group ([1]; 48 h after tail vein injection, ex vivo imaging) [fold] | duration of fluorescence signal in tumor tissues [1, 4] | liver and lung metastasis (bioluminescent signals, number of metastatic foci) [2] | size change in PBS and FBS solutions within 168 h [3] | PpIX fluorescence on activated neutrophils from 4 h to 12 h (retention) (activated neutrophils) | fluorescence signal in major organs by 72 h [1, 4]
1 | PpIX-GFFVLK-EAIPMSIPPEVK [FTP-NPs] | 7.1 | up to 7 days | weakened considerably and significantly lower | did not change significantly | persistently strong PpIX fluorescence signals | –
2 | PpIX-GGGAAK-EAIPMSIPPEVK [NFTP-NPs, nanoparticles of the non-fibrillar transformable control peptide NFTP] | – | – | obvious metastases | did not change significantly | dropped sharply | essentially undetectable
